The series in a line: chemical recovery from spiked human plasma; higher = better extraction. The settings on record: pooled human plasma.
The mark [1] stands for this setting: extraction method: SPE only (HLB 96-well).
Setting [2] is: extraction method: solvent precipitation (ACN + hexane).
Where [3] appears, read: extraction method: PES+SPE (3 d PDMS equilibration then HLB SPE).
Where [4] appears, read: extraction method: SPE only (HLB 96-well), PES comparison experiment.

± gives the standard deviation.

`CC[C@H](C)[C@H]1O[C@]2(C=C[C@@H]1C)C[C@@H]1C[C@@H](C/C=C(\C)[C@@H](O[C@H]3C[C@H](OC)[C@@H](O[C@H]4C[C@H](OC)[C@@H](NC)[C@H](C)O4)[C@H](C)O3)[C@@H](C)/C=C/C=C3\CO[C@@H]4[C@H](O)C(C)=C[C@@H](C(=O)O1)[C@]34O)O2` [Emamectin-B1a] came in with a chemical recovery under setting [1] of 17.2 ± 7.2%.

On to `Nc1nc(=O)n([C@@H]2CS[C@H](CO)O2)cc1F` [Emtricitabine], for which the chemical recovery was determined as 14.2 ± 4.3% under setting [1] and 71.1 ± 4.1% under setting [2].

Turning to `O=C1C2CC3C1C1(Cl)C(Cl)C4(Cl)C2C3C1(Cl)C4(Cl)Cl` (stereo unspecified) [Endrin ketone], the chemical recovery under setting [1] came to 7.89 ± 2.1% and the chemical recovery under setting [2] turned out to be 15.3 ± 1.4%.

For `CCCCc1ncc(/C=C(\Cc2cccs2)C(=O)O)n1Cc1ccc(C(=O)O)cc1` [Eprosartan], the chemical recovery under setting [1] worked out at 44.3 ± 4.6%.

As for `CC(C)[C@H](C(=O)O[C@H](C#N)c1cccc(Oc2ccccc2)c1)c1ccc(Cl)cc1` [Esfenvalerate], the chemical recovery under setting [2] was determined as 118 ± 16%.

As for `CCOC(=O)c1ccc(O)cc1` [Ethylparaben], the chemical recovery by setting is: under setting [3], 56.1 ± 4%; under setting [1], 45.3 ± 3%; under setting [2], 66.3 ± 2.4%.

As for `CCOC(=O)C(C#N)=C(c1ccccc1)c1ccccc1` [Etocrylene], the chemical recovery reads like this: under setting [3], 35.4 ± 4.9%; under setting [1], 36.7 ± 2.9%; under setting [2], 49.9 ± 9.2%.

With `CCOc1ccc(C(C)(C)COCc2cccc(Oc3ccccc3)c2)cc1` [Etofenprox], the chemical recovery came out at 4.05 ± 1.4% under setting [1] and 5.02 ± 0.29% under setting [2].

As for `C=CCc1ccc(O)c(OC)c1` [Eugenol], the chemical recovery was 42.8 ± 4.4% under setting [3], 44.8 ± 1.8% under setting [1] and 50.3 ± 6.1% under setting [2].

In the case of `CSC1=N[C@@](C)(c2ccccc2)C(=O)N1Nc1ccccc1` [Fenamidone], the chemical recovery stood at 60.6 ± 12% under setting [3], 57.8 ± 2.2% under setting [1] and 79.4 ± 2.9% under setting [2].

For `CC1(C(=O)Nc2ccc(O)c(Cl)c2Cl)CCCCC1` [Fenhexamid], under setting [2], the chemical recovery came to 66.2 ± 1.5%.

Take `CC(Oc1ccc(Oc2nc3ccc(Cl)cc3o2)cc1)C(=O)O` (stereo unspecified) [Fenoxaprop-P]: the chemical recovery turned out to be 42.2 ± 5% under setting [3] and 26.7 ± 2.6% under setting [1].

For `CC(Cc1ccc(C(C)(C)C(=O)O)cc1)CN1C[C@@H](C)O[C@@H](C)C1` (stereo partly specified) [Fenpropimorph-acid], the chemical recovery under setting [3] was 41.2 ± 4.4%, the chemical recovery under setting [1] was 42.9 ± 4.1% and the chemical recovery under setting [2] was 67.5 ± 3.3%.

`COP(=S)(OC)Oc1ccc(SC)c(C)c1` [Fenthion]: the chemical recovery reads like this: under setting [3], 1.29 ± 0.38%; under setting [1], 59.7 ± 2.1%; under setting [4], 47 ± 8.3%.

For `CN(C)C(=O)Nc1ccccc1` [Fenuron], the chemical recovery runs as follows: under setting [3], 49.2 ± 5%; under setting [1], 46.9 ± 2.6%; under setting [4], 49.4 ± 5.9%; under setting [2], 74.6 ± 2.4%.

Turning to `N#CCNC(=O)c1cnccc1C(F)(F)F` [Flonicamid], the chemical recovery is, setting by setting: under setting [3], 53.1 ± 3.7%; under setting [1], 46.9 ± 1.9%; under setting [2], 73.8 ± 3.3%.

Take `Cc1cc(C(F)(C(F)(F)F)C(F)(F)F)ccc1NC(=O)c1cccc(I)c1C(=O)NC(C)(C)CS(C)(=O)=O` [Flubendiamide]: the chemical recovery turned out to be 25.7 ± 6.4% under setting [1] and 53.1 ± 4.4% under setting [2].

For the compound `N#Cc1c[nH]cc1-c1cccc2c1OC(F)(F)O2` [Fludioxonil], the chemical recovery amounted to 67.2 ± 4.7% under setting [3], 40.1 ± 3.5% under setting [1] and 51.4 ± 2.9% under setting [2].

In the case of `CC(=O)OCC(=O)[C@@]1(O)CC[C@H]2[C@@H]3CCC4=CC(=O)CC[C@]4(C)[C@@]3(F)[C@@H](O)C[C@@]21C` [Fludrocortisone-21-acetate], the chemical recovery under setting [4] was 46.7 ± 4.8%.

On to `O=C(O)c1ccccc1Nc1cccc(C(F)(F)F)c1` [Flufenamic-acid], for which the chemical recovery under setting [3] stood at 58 ± 5.7%, the chemical recovery under setting [1] is 44.9 ± 11% and the chemical recovery under setting [2] was 51.1 ± 1.4%.

For `O=C(NC(=O)c1c(F)cccc1F)Nc1ccc(Oc2ccc(C(F)(F)F)cc2Cl)cc1F` [Flufenoxuron], the chemical recovery under setting [1] was 25.7 ± 5.2% and the chemical recovery under setting [4] turned out to be 24 ± 6.8%.

Take `C#CCN1C(=O)COc2cc(F)c(N3C(=O)C4=C(CCCC4)C3=O)cc21` [Flumioxazin]: the chemical recovery was found to be 47.2 ± 4.8% under setting [3], 40.9 ± 0.44% under setting [1], 38.5 ± 7.6% under setting [4] and 5.96 ± 5.2% under setting [2].

For `CC1(C)O[C@@H]2C[C@H]3[C@@H]4C[C@H](F)C5=CC(=O)C=C[C@]5(C)[C@@]4(F)[C@@H](O)C[C@]3(C)[C@]2(C(=O)CO)O1` [Fluocinolone acetonide], the chemical recovery under setting [4] was 46.1 ± 5.2%.

On to `O=C(NCc1ncc(C(F)(F)F)cc1Cl)c1c(Cl)cccc1Cl` [Fluopicolide], for which the chemical recovery is, setting by setting: under setting [3], 65.8 ± 11%; under setting [1], 58.1 ± 3.7%; under setting [2], 79.1 ± 2.3%.

For the compound `O=C(NCCc1ncc(C(F)(F)F)cc1Cl)c1ccccc1C(F)(F)F` [Fluopyram], the chemical recovery under setting [2] is 67.8 ± 2.1%.

With `c1ccc2c(c1)Cc1ccccc1-2` [Fluorene], the chemical recovery under setting [4] was found to be 11 ± 2.6%.

`CC(C)(C)c1ccc2oc(-c3ccc(-c4nc5cc(C(C)(C)C)ccc5o4)s3)nc2c1` [Fluorescent-Brightener-184]: under setting [1], the chemical recovery came to 0.938 ± 0.39%.

In the case of `OCCN1CCN(CCC=C2c3ccccc3Sc3ccc(C(F)(F)F)cc32)CC1` [Flupentixol], the chemical recovery under setting [2] came to 51.7 ± 2.5%.

On to `O=C1C=C(N(Cc2ccc(Cl)nc2)CC(F)F)CO1` [Flupyradifurone], for which the chemical recovery runs as follows: under setting [3], 43.9 ± 3.3%; under setting [1], 39.3 ± 3.1%; under setting [2], 76.9 ± 2.6%.

Consider `CC(C)Oc1cccc(NC(=O)c2ccccc2C(F)(F)F)c1` [Flutolanil], for which the chemical recovery is, setting by setting: under setting [3], 53.5 ± 4.5%; under setting [1], 38.9 ± 0.5%; under setting [2], 60.8 ± 4.7%.

Take `OC(Cn1cncn1)(c1ccc(F)cc1)c1ccccc1F` (stereo unspecified) [Flutriafol]: the chemical recovery worked out at 43.2 ± 5.4% under setting [3], 41.9 ± 3.3% under setting [1] and 78.9 ± 4% under setting [2].

As to `Cn1cc(C(=O)Nc2ccccc2-c2cc(F)c(F)c(F)c2)c(C(F)F)n1` [Fluxapyroxad], the chemical recovery reads like this: under setting [3], 69.6 ± 10%; under setting [1], 65 ± 3%; under setting [2], 79.9 ± 1.2%.

As to `COc1cc(OC)nc(NC(=O)NS(=O)(=O)c2cc(NC=O)ccc2C(=O)N(C)C)n1` [Foramsulfuron], under setting [2], the chemical recovery was 69 ± 4.2%.

For `CNC(=O)Oc1cccc(/N=C/N(C)C)c1` [Formetanate], the chemical recovery under setting [1] came out at 8.98 ± 3.5% and the chemical recovery under setting [2] is 2.27 ± 3.9%.

For `CC1COCc2cc3c(cc21)C(C)(C)C(C)C3(C)C` (stereo unspecified) [Galaxolide], the chemical recovery came to 39.1 ± 9.8% under setting [3], 13.7 ± 2.7% under setting [1] and 99.6 ± 18% under setting [2].

As for `CC1(C)[C@@H](O[C@H]2O[C@H](C(=O)O)[C@@H](O)[C@H](O)[C@H]2O[C@@H]2O[C@H](C(=O)O)[C@@H](O)[C@H](O)[C@H]2O)CC[C@]2(C)[C@H]3C(=O)C=C4[C@@H]5C[C@@](C)(C(=O)O)CC[C@]5(C)CC[C@@]4(C)[C@]3(C)CC[C@@H]12` [Glycyrrhizin], the chemical recovery reads like this: under setting [3], 14.5 ± 4.5%; under setting [1], 16.6 ± 2.5%; under setting [2], 0.719 ± 0.66%.

As for `N=C(N)NC(=O)Cc1c(Cl)cccc1Cl` [Guanfacine], the chemical recovery under setting [3] worked out at 43.1 ± 2.6%, the chemical recovery under setting [1] worked out at 44 ± 3.3% and the chemical recovery under setting [2] stood at 57.9 ± 5%.

With `O=C(O)C(F)(OC(F)(F)C(F)(F)C(F)(F)F)C(F)(F)F` (stereo unspecified) [HFPO-DA], the chemical recovery worked out at 30.7 ± 3% under setting [1] and 67.4 ± 3.1% under setting [2].

Source of the values: the supplement of paper PMC10702517.
